The values that follow come from patent US12479847B2 (DANA-FARBER CANCER INSTITUTE, INC., priority 2019, dated 2025).

Test in all cases: KINOMEscan (ScanMAX) kinase profiling
Common to all, as to type: binding

Test [1] has as its target T1, panel of 468 kinases (Homo sapiens, UniProt Q9UEW8).
T1 construct: purchased KINOMEscan (ScanMAX) service
The conditions noted are these: STK39; 1 μM; read-out: % control.

For test [2], the target named is T2, panel of 468 kinases (Homo sapiens, UniProt Q9Y6R4).
T2 construct: purchased KINOMEscan (ScanMAX) service
T2 sequence (Q9Y6R4 whole entry): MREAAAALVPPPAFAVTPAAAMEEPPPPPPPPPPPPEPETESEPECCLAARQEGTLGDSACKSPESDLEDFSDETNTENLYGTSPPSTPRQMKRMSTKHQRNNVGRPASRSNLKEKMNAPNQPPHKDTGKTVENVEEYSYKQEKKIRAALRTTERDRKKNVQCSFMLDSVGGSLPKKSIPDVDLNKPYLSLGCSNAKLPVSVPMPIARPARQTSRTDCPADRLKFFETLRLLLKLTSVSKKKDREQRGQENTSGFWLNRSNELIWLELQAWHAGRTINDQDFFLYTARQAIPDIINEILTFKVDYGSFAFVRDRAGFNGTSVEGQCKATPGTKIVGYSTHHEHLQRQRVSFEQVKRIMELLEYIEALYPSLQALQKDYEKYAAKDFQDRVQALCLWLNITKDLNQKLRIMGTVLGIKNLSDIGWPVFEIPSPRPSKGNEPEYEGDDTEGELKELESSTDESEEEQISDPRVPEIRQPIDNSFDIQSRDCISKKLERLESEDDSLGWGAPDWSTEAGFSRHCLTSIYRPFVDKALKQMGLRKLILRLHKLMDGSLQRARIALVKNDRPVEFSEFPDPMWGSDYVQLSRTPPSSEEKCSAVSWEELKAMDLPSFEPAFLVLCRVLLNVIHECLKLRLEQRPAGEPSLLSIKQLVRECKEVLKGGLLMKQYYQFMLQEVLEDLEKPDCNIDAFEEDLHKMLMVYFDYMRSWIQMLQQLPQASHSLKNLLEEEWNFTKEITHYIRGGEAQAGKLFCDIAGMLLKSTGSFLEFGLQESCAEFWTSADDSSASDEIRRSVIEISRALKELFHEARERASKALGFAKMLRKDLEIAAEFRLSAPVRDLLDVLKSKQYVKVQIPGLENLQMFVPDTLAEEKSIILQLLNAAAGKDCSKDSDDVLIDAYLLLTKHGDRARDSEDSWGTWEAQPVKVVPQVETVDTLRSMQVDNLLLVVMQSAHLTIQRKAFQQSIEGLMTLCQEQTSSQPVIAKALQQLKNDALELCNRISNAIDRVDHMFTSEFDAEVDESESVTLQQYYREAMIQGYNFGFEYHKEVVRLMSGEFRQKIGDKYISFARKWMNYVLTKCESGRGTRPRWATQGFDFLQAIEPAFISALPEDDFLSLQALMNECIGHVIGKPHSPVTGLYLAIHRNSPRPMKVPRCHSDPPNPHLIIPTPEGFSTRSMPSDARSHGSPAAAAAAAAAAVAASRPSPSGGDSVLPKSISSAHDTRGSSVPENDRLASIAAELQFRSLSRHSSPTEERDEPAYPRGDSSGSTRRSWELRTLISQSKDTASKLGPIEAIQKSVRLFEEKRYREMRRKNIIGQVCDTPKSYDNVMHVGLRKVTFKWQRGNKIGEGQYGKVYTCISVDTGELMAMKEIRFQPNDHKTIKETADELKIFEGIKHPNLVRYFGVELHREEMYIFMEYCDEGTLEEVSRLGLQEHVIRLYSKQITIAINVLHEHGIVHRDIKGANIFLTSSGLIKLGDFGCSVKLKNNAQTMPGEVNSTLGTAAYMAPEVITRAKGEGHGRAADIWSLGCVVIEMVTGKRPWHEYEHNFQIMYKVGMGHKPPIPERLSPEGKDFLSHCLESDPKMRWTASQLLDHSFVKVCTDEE
The conditions noted are these: MAP3K4; 1 μM; read-out: % control.

Test [3] addresses T3, panel of 468 kinases (Homo sapiens, UniProt P36888, R834Q).
T3 construct: purchased KINOMEscan (ScanMAX) service
T3 sequence (P36888 27-993 R834Q): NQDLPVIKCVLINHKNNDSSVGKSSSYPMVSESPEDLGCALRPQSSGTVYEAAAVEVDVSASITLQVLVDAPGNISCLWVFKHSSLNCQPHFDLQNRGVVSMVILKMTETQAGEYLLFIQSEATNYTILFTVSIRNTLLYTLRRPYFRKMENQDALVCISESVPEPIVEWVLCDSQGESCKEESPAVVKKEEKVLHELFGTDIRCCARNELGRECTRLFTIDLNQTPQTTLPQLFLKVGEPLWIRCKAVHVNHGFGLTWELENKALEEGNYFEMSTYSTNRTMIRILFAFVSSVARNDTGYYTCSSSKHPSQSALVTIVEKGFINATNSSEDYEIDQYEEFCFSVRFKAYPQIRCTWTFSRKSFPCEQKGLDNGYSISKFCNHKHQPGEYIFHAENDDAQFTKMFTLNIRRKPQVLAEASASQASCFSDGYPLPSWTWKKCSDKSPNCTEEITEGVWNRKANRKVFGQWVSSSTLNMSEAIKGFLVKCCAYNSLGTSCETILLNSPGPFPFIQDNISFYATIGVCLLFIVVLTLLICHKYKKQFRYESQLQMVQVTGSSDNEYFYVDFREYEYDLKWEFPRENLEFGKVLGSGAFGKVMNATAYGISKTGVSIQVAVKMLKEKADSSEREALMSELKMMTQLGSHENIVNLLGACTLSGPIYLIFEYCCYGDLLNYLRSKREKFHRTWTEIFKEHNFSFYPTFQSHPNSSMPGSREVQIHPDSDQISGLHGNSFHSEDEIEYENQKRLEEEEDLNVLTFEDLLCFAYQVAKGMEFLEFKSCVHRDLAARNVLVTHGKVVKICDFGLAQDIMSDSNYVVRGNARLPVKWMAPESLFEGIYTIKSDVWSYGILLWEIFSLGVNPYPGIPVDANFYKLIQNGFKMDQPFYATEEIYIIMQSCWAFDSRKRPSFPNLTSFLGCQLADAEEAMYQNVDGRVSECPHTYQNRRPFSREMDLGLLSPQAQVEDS
The conditions noted are these: FLT3(R834Q); 1 μM; read-out: % control.

The target in test [4] is T4, panel of 468 kinases (Homo sapiens, UniProt Q04759).
T4 construct: purchased KINOMEscan (ScanMAX) service
T4 sequence (Q04759 whole entry): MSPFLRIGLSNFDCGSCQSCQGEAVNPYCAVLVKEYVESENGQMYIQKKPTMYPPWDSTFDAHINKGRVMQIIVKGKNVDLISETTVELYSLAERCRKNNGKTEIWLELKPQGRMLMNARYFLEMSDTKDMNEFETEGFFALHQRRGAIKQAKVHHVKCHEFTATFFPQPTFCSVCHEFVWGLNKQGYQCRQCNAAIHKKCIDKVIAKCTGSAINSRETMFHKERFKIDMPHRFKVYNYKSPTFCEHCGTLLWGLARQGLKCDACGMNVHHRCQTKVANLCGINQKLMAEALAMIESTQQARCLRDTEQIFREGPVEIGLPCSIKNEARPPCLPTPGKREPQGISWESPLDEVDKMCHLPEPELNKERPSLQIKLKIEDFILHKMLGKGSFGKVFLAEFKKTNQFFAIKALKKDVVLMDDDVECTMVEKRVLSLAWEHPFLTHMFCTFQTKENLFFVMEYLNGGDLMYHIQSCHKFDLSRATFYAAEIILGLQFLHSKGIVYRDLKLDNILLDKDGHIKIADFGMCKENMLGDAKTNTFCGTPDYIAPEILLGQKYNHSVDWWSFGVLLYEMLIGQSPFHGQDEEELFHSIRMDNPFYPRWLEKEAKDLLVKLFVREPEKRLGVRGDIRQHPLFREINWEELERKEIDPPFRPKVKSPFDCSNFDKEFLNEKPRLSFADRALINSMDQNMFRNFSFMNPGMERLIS
The conditions noted are these: PRKCQ; 1 μM; read-out: % control.

Test [5] has as its target T5, panel of 468 kinases (Homo sapiens, UniProt O14965).
T5 construct: purchased KINOMEscan (ScanMAX) service
T5 sequence (O14965 1-403): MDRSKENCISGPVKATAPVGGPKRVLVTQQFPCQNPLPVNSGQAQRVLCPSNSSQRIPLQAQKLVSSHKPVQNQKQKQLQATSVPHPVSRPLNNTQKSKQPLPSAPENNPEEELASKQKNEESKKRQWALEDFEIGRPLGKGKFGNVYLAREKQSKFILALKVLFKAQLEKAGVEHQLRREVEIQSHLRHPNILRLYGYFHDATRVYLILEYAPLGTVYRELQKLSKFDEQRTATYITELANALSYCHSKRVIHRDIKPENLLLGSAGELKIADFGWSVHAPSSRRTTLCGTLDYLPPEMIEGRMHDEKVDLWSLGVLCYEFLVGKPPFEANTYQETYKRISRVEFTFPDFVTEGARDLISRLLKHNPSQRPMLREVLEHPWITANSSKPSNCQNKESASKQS
The following applies: AURKA; 1 μM; read-out: % control.

Test [6] addresses T6, panel of 468 kinases (Homo sapiens, UniProt Q9HBH9).
T6 construct: purchased KINOMEscan (ScanMAX) service
The conditions noted are these: MKNK2; 1 μM; read-out: % control.

Test [7] addresses T7, panel of 468 kinases (Homo sapiens, UniProt O43353).
T7 construct: purchased KINOMEscan (ScanMAX) service
The following applies: RIPK2; 1 μM; read-out: % control.

For test [8], the target named is T8, panel of 468 kinases (Homo sapiens, UniProt Q9BWU1).
T8 construct: purchased KINOMEscan (ScanMAX) service
T8 sequence (Q9BWU1 whole entry): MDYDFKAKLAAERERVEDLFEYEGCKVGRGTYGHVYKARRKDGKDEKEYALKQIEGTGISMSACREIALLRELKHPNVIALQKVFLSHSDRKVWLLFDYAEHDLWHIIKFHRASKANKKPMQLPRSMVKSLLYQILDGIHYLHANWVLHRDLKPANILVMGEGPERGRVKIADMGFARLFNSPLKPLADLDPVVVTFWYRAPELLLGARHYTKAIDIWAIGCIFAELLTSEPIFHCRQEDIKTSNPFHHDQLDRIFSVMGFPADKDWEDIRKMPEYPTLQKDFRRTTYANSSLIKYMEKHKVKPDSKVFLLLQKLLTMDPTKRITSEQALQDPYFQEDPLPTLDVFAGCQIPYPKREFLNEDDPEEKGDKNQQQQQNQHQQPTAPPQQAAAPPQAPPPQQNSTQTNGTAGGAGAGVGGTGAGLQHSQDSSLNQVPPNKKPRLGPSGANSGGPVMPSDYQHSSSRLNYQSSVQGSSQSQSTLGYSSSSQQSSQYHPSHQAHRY
The conditions noted are these: CDK11; 1 μM; read-out: % control.

Test [9] deals with T9, panel of 468 kinases (Homo sapiens, UniProt Q9H0K1).
T9 construct: purchased KINOMEscan (ScanMAX) service
T9 sequence (Q9H0K1 whole entry): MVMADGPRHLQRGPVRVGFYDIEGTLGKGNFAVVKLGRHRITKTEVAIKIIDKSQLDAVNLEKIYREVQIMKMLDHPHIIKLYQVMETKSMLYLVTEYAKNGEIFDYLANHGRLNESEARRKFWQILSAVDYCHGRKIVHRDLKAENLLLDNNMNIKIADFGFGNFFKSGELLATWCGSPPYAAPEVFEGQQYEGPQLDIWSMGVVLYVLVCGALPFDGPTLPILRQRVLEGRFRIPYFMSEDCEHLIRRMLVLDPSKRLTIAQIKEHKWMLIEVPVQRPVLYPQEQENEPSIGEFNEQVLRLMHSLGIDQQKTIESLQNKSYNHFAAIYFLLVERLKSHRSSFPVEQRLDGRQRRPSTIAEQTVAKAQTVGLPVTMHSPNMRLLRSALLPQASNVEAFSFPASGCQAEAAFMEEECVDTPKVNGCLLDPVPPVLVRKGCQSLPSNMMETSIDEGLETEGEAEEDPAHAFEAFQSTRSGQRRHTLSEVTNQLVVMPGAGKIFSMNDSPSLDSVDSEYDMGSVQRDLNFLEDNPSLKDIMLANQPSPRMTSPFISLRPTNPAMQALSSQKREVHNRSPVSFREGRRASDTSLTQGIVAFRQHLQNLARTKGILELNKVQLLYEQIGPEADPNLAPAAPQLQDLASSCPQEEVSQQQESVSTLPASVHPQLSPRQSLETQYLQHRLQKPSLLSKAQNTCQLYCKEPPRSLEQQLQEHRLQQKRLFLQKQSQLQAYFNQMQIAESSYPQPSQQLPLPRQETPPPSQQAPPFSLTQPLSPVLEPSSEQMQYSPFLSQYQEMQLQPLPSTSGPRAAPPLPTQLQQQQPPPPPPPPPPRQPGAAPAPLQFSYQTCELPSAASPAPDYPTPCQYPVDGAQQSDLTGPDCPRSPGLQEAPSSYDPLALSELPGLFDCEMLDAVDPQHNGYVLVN
The following applies: SIK2; 1 μM; read-out: % control.

Test [10] addresses T10, panel of 468 kinases (Homo sapiens, UniProt P22694).
T10 construct: purchased KINOMEscan (ScanMAX) service
The conditions noted are these: PKAC-beta; 1 μM; read-out: % control.

In test [11] the target is T11, panel of 468 kinases (Homo sapiens, UniProt Q16566).
T11 construct: purchased KINOMEscan (ScanMAX) service
T11 sequence (Q16566 1-473): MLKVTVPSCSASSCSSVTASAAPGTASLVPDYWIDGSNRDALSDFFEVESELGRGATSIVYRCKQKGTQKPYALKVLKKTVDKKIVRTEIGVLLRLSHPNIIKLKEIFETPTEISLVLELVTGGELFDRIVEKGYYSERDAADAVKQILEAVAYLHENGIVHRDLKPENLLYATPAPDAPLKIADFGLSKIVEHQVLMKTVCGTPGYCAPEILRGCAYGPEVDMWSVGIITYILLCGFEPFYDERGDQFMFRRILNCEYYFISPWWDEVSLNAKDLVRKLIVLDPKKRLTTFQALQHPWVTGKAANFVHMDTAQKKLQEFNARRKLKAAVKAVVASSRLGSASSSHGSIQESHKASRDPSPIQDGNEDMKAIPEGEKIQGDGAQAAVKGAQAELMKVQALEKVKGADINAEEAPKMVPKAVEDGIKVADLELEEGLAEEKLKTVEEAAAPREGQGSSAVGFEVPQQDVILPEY
The following applies: CAMK4; 1 μM; read-out: % control.

The structures appear in SMILES notation.

T6 sequence (Q9HBH9 whole entry): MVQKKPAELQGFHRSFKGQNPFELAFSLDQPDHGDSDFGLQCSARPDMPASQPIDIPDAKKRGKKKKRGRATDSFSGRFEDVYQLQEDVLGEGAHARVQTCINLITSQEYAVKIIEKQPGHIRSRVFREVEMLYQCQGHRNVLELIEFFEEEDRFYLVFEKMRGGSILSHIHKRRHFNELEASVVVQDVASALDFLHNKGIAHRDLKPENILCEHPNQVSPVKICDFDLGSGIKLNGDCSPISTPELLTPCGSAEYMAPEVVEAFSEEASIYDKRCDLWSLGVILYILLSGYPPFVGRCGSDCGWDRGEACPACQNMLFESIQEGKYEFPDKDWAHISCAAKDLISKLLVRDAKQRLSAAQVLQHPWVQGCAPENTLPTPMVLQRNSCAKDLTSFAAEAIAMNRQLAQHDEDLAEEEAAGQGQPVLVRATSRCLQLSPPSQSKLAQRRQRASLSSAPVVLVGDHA
T7 sequence (O43353 whole entry): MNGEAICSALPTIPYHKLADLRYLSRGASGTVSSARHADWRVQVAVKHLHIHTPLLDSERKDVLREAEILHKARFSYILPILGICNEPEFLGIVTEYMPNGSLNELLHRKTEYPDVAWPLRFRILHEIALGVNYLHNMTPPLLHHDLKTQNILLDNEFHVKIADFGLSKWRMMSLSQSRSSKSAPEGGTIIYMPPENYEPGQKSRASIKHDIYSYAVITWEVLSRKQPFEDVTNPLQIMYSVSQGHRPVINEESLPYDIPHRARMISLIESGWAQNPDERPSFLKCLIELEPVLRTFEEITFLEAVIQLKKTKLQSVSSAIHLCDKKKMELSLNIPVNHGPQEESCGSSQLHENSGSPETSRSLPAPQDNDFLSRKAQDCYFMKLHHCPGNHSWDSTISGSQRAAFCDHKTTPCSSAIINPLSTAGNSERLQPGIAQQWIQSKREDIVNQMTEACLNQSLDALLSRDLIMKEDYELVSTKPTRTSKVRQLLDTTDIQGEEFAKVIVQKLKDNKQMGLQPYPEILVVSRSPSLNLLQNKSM

Regarding `CNc1nc(Nc2ccc(S(=O)(=O)N3CCC(N4CCOCC4)CC3)cc2OC)nc2[nH]cc(Cl)c12` [Compound 12, 5-chloro-N2-(2-methoxy-4-((4-morpholinopiperidin-1-yl)sulfonyl)phenyl)-N4-methyl-7H-pyrrolo[2,3-d]pyrimidine-2,4-diamine], the remaining binding at 1 µM turned out to be 4.8% at panel of 468 kinases [1]; 100% on panel of 468 kinases [2]; 92% on panel of 468 kinases [3]; 100% at panel of 468 kinases [4]; 93% at panel of 468 kinases [5]; 57% at panel of 468 kinases [6]. Further, the remaining binding at 1 µM on panel of 468 kinases [7], at panel of 468 kinases [8], at panel of 468 kinases [9], at panel of 468 kinases [10] and on panel of 468 kinases [11] was 100% each time.
Take `CNc1nc(Nc2ccc(P3(=O)CCN(C4CCOCC4)CC3)cc2OC)nc2[nH]cc(Cl)c12` [Compound 77, 4-(4-((5-chloro-4-(methylamino)-7H-pyrrolo[2,3-d]pyrimidin-2-yl)amino)-3-methoxyphenyl)-1-(tetrahydro-2H-pyran-4-yl)-1,4-azaphosphinane 4-oxide]: the remaining binding at 1 µM on panel of 468 kinases [1] is 0.5%; at panel of 468 kinases [2], 100%; at panel of 468 kinases [3], 82%; at panel of 468 kinases [4] it was 95%; on panel of 468 kinases [5], 85%; on panel of 468 kinases [6], 31%. Also, the remaining binding at 1 µM on panel of 468 kinases [7], at panel of 468 kinases [8], at panel of 468 kinases [9], on panel of 468 kinases [10] and on panel of 468 kinases [11] was 100% throughout.
For `CNc1nc(Nc2ccc(C(=O)N3CCC(N4CCOCC4)CC3)c3c2OCO3)nc2[nH]cc(Cl)c12` [Compound 75, (7-((5-chloro-4-(methylamino)-7H-pyrrolo[2,3-d]pyrimidin-2-yl)amino)benzo[d][1,3]dioxol-4-yl)(4-morpholinopiperidin-1-yl)methanone], the remaining binding at 1 µM on panel of 468 kinases [1] amounted to 5.4%; on panel of 468 kinases [2] it was 100%; on panel of 468 kinases [3], 73%; at panel of 468 kinases [4] it was 100%; at panel of 468 kinases [5] it was 45%; at panel of 468 kinases [6], 10%. For the same compound, the remaining binding at 1 µM at panel of 468 kinases [7] came to 100%; on panel of 468 kinases [8], 98%; at panel of 468 kinases [9] it was 100%; at panel of 468 kinases [10] it was 100%; on panel of 468 kinases [11], 100%.
